Reference: US20060084688A1, “Aromatic sulfone hydroxamic acid metalloprotease inhibitor” (priority 1997, published 2006)

How the values were obtained:
[1] = system: neovascularization of the corneal stroma; test: In vivo angiogenesis assay (corneal micropocket, bFGF/sucralfate Hydron pellet); design: species or system C57Bl/6 female mouse; conditions: 50 mpk bid, po; scored at day five; average of n studies
Method: The study of angiogenesis depends on a reliable and reproducible model for the stimulation and inhibition of a neovascular response. The corneal micropocket assay provides such a model of angiogenesis in the cornea of a mouse. See, A Model of Angiogenesis in the Mouse Cornea; Kenyon, BM, et al., Investigative Ophthalmology & Visual Science, July 1996, Vol. 37, No. 8.
In this assay, uniformLy sized Hydron™ pellets containing bFGF and sucralfate were prepared and surgically implanted into the stroma mouse cornea adjacent to the temporal limbus. […]
Mice were dosed on a daily basis for the duration of the assay. […] At day five, the degree of angiogenic inhibition was scored by viewing the neovascular progression with a slit lamp microscope.
The mice were anesthetized and the studied eye was once again proptosed. The maximum vessel length of neovascularization, extending from the limbal vascular plexus toward the pellet was measured. In addition, the contiguous circumferential zone of neovascularization was measured as clock hours, where 30 degrees of arc equals one clock hour. The area of angiogenesis was calculated as follows. […]
Five to six mice were utilized for each compound in each study. The studied mice were thereafter compared to control mice and the difference in the area of neovascularization was recorded as an averaged value. […]

[2] = system: advanced, rapidly progressive, treatment-refractory solid tumor cancers (colorectal, pancreatic, ovarian, prostate); conditions: Phase I/II, cited from earlier work
[3] = system: PC-3 human pancreatic cancer cells (ATCC CRL 1435); test: In vivo PC-3 tumor reduction; design: species or system Balb/c nu/nu mice; conditions: day 0 to day 25-30, average of n studies
Method: PC-3 human pancreatic cancer eclls (ATCC CRL 1435) were grown to 90% confluence in F12/MEM (Gibco) containing 7% FBS (Gibco). Cells were mechanically harvested using a rubber scraper, and then washed twice with cold medium. The resulting cells were resuspended in cold medium with 30% matrigel (Collaborative Research) and the cell-containing medium was maintained on ice until used.
Balb/c nu/nu mice at 7-9 weeks of age were anesthetized with avertin [2,2,2-tribromethanol/t-amyl alcohol (1 g/l mL) diluted 1:60 into phosphate-buffered sline] and 3-5×10^6 of the above cells in 0.2 mL of medium were injected into the left flank of each mouse. Cells were injected in the morning, whereas dosing with an inhibitor began at 6 PM. The animals were gavaged BID from day zero (cell injection day) to day 25-30, at which time the animals were euthanized and tumors weighed.
Compounds were dosed at 10 mg/mL in 0.5% methylcellulose/0.1% polysorbate 80 to provide a 50 mg/kg (mpk) dose twice each day, or diluted to provide a 10 mg/kg (mpk) dose twice each day. Tumor measurements began on day 7 and continued every third or fourth day until completion of the study. Groups of ten mice were used in each study and nine to ten survived. Each group of mice so studied constitutes an “n” value of one, so that “n” values greater than one represent multiple studies whose averaged result is provided in the table. […]

For `CNC(=O)[C@@H](NC(=O)[C@H](CC(C)C)[C@H](O)C(=O)NO)C(C)(C)C` [marimastat], the “Inhibition of Angiogenesis (area of neovascularization vs control)” value [1] is listed as 48 (n = 6) percent, the “most common drug-related toxicity” value ([2]; clinical trials) is listed as “musculoskeletal pain and stiffness” and the “cancer-specific antigens used as surrogate markers for biological activity” value ([2]; patients with advanced solid tumor cancers) is listed as “dose-related reduction in the rise of cancer-specific antigens”. The “Average Percentage Reduction In Tumor Weight” value ([3]; 10 mpk BID gavage) was <5% and the “Average Percentage Reduction In Tumor Weight” value ([3]; 50 mpk BID gavage) was 39 (n = 2) percent.
